Laboratory results: ChEMBL document CHEMBL5120754, “Structural modification aimed for improving solubility of lead compounds in early phase drug discovery” (Bioorg Med Chem, 2022)

System: not listed separately
Test: physchem
Conditions: buffer

SMILES	solubility thermodynamic
CN1C(=O)CCC(N2C(=O)c3ccccc3C2=O)C1=O (stereo not given)	276 µg/mL
c1cn2cc(-c3ccc4cn[nH]c4c3)nc(Nc3ccc(N4CCOCC4)cc3)c2n1 [ENTOSPLETINIB]	28 µg/mL
C=C1C(=O)[C@]23[C@H](O)[C@H]1CC[C@H]2[C@@]12CO[C@]3(O)[C@@H](O)[C@@H]1C(C)(C)CC[C@@H]2O [ORIDONIN]	1290 µg/mL
O=C1CCC(N2C(=O)c3ccccc3C2=O)C(=O)N1 (stereo not given) [THALIDOMIDE]	52 µg/mL
COc1ccc(CNc2c3c(nc4ccc(C#N)cc24)CCN(C(C)=O)C3)cc1Cl	500 µM
CCCCCn1cc(C(=O)NC23CC4CC(CC(C4)C2)C3)c(=O)c2ccc(F)cc21	0.014 µg/mL
C=CCNc1nc2c(s1)CC(C)(C)[C@H]1[C@H](O)[C@@]3(O)OC[C@@]21[C@@H]1CC[C@H]2C(=C)C(=O)[C@]13[C@@H]2O	81200 µg/mL
C=C1C(=O)[C@]23[C@H](O)[C@H]1CC[C@H]2[C@@]12CO[C@]3(O)[C@@H](O)[C@@H]1C(C)(C)Cc1sc(C)nc12	4400 µg/mL
Cn1nnc(-c2ccc(-c3ccc(N4C[C@H](CO)OC4=O)cc3F)cn2)n1 [TEDIZOLID]	136 µg/mL
C=C1C(=O)[C@]23[C@H](O)[C@H]1CC[C@H]2[C@@]12CO[C@]3(O)[C@@H](O)[C@@H]1C(C)(C)Cc1sc(NC)nc12	42400 µg/mL
CN(C)CCn1cc(C(=O)NC23CC4CC(CC(C4)C2)C3)c(=O)c2ccc(F)cc21	5.6 µg/mL
NC(=O)NCCSc1nc(N)nc(-c2c(Cl)cc3c4c(cccc24)COC3)n1	773 µM
COc1cnc(-n2cnc(C)n2)c2[nH]cc(C(=O)C(=O)N3CCN(C(=O)c4ccccc4)CC3)c12	147 µg/mL
Cc1sc(N2CCOCC2)nc1CCOc1ccc(CC(Nc2ccccc2C(=O)c2ccccc2)C(=O)O)cc1 (stereo not given)	180 µg/mL
COc1cnc(-n2cnc(C)n2)c2c1c(C(=O)C(=O)N1CCN(C(=O)c3ccccc3)CC1)cn2COP(=O)(O)O [FOSTEMSAVIR]	11000 µg/mL
O=c1nc2n(CCCC(F)(F)F)nc(-c3cccc(C(F)(F)F)c3)nc-2c(=O)n1CCC1CC1	200 µM
CC(C)(C)OC(=O)N1CCN(c2ncc(OCc3ccc(S(C)(=O)=O)cc3)cn2)CC1	0.03 µM
COc1ccc(-c2oc3cc(O[C@@H]4O[C@H](CO[C@@H]5O[C@@H](C)[C@H](O)[C@@H](O)[C@H]5O)[C@@H](O)[C@H](O)[C@H]4O)cc(O)c3c(=O)c2Br)cc1O	100000 µg/mL

Second part, the molecule after the results:

solubility thermodynamic	SMILES
0.1 µg/mL	CCCCCc1ccc(-c2cc(CCC(=O)O)c3c(=O)n(CC4CCCO4)c(N)nc3c2)cc1 (stereo not given)
17 µg/mL	C/C(=C1/C(=O)Nc2ccc(NC(N)=O)cc21)c1cc(CNC(=O)C2CCNCC2)c[nH]1
2000 µg/mL	NC(=O)Nc1ccc2c(c1)/C(=C/c1ccc[nH]1)C(=O)N2
0.04 µM	COc1cc(NCc2cc3cc(C)c(C)cc3[nH]c2=O)ccc1-n1cnnn1
29 µg/mL	NC(=O)Nc1ccc2c(c1)/C(=C/c1cc(-c3ccccn3)c[nH]1)C(=O)N2
7 µg/mL	O=C(C(=O)N1CCN(C(=O)c2ccccc2)CC1)c1c[nH]c2c(-n3ccnn3)ncc(F)c12
0.43 µM	COc1cc(NCc2cc3cc(Cl)ccc3[nH]c2=O)ccc1C#N
13 µg/mL	CN(C)CCNC(=O)c1cccc(-c2c[nH]c(/C=C3\C(=O)Nc4ccc(NC(N)=O)cc43)c2)c1
0.01 µg/mL	CCCCCc1ccc(-c2cc(-c3ccc(C(=O)O)cc3)c3c(=O)n(CC4CCC(c5ccccc5)O4)c(N)nc3c2)cc1 (stereo not given)
1500 µg/mL	COc1c(C(=O)Nc2ccc(NS(C)(=O)=O)cc2)cc(N2CCC(=O)NC2=O)cc1C(C)(C)C
153 µg/mL	O=c1cc(-c2c(F)cccc2F)oc2ccc3ccccc3c12

System: MCF7
Test: Antiproliferative activity against ER-positive human MCF7 cells after 48 hrs by MTT assay
Type: functional, cell-based
Conditions: MCF7, 48 h

IC50	SMILES
6600 nM	C=C1C(=O)[C@]23[C@H](O)[C@H]1CC[C@H]2[C@@]12CO[C@]3(O)[C@@H](O)[C@@H]1C(C)(C)CC[C@@H]2O [ORIDONIN]
200 nM	C=CCNc1nc2c(s1)CC(C)(C)[C@H]1[C@H](O)[C@@]3(O)OC[C@@]21[C@@H]1CC[C@H]2C(=C)C(=O)[C@]13[C@@H]2O
2600 nM	C=C1C(=O)[C@]23[C@H](O)[C@H]1CC[C@H]2[C@@]12CO[C@]3(O)[C@@H](O)[C@@H]1C(C)(C)Cc1sc(C)nc12
1300 nM	C=C1C(=O)[C@]23[C@H](O)[C@H]1CC[C@H]2[C@@]12CO[C@]3(O)[C@@H](O)[C@@H]1C(C)(C)Cc1sc(NC)nc12

System: not listed separately
Test: physchem
Conditions: octanol/water

logP	SMILES
3.62	CC1c2ccc3c(c2OC(=O)C1CO)[C@@H](OC(=O)[C@@]12CC[C@@](C)(C(=O)O1)C2(C)C)[C@@H](OC(=O)[C@@]12CC[C@@](C)(C(=O)O1)C2(C)C)C(C)(C)O3 (stereo not given in full)
4.2	Cc1c(-c2ccc(-c3ccc(OC(F)(F)F)cc3)nc2)[nH]c2ccccc2c1=O
4.6	FC(F)(F)c1c(N2CCC(c3ccccc3)CC2)ccn2c(CC3CC3)nnc12
4.82	CC1CC(=O)Oc2c1ccc1c2[C@@H](OC(=O)[C@@]23CC[C@@](C)(C(=O)O2)C3(C)C)[C@@H](OC(=O)[C@@]23CC[C@@](C)(C(=O)O2)C3(C)C)C(C)(C)O1 (stereo not given in full)
6.4	Cc1c(-c2ccc(Cc3ccc(OC(F)(F)F)cc3)cc2)[nH]c2cc(Cl)ccc2c1=O
0.93	COc1ccc(-c2oc3cc(O[C@@H]4O[C@H](CO[C@@H]5O[C@@H](C)[C@H](O)[C@@H](O)[C@H]5O)[C@@H](O)[C@H](O)[C@H]4O)cc(O)c3c(=O)c2Br)cc1O

System: Human immunodeficiency virus 1
Test: Antiviral activity against HIV-1
Type: functional, organism-based
Conditions: not given

EC50	SMILES
4 nM	CC1c2ccc3c(c2OC(=O)C1CO)[C@@H](OC(=O)[C@@]12CC[C@@](C)(C(=O)O1)C2(C)C)[C@@H](OC(=O)[C@@]12CC[C@@](C)(C(=O)O1)C2(C)C)C(C)(C)O3 (stereo not given in full)
1.5 nM	CC1CC(=O)Oc2c1ccc1c2[C@@H](OC(=O)[C@@]23CC[C@@](C)(C(=O)O2)C3(C)C)[C@@H](OC(=O)[C@@]23CC[C@@](C)(C(=O)O2)C3(C)C)C(C)(C)O1 (stereo not given in full)
0.006 nM	O=C(C(=O)N1CCN(C(=O)c2ccccc2)CC1)c1c[nH]c2c(-n3ccnn3)ncc(F)c12

Target: Plasmepsin II (Plasmodium falciparum, UniProt P46925)
Sequence (P46925 whole entry): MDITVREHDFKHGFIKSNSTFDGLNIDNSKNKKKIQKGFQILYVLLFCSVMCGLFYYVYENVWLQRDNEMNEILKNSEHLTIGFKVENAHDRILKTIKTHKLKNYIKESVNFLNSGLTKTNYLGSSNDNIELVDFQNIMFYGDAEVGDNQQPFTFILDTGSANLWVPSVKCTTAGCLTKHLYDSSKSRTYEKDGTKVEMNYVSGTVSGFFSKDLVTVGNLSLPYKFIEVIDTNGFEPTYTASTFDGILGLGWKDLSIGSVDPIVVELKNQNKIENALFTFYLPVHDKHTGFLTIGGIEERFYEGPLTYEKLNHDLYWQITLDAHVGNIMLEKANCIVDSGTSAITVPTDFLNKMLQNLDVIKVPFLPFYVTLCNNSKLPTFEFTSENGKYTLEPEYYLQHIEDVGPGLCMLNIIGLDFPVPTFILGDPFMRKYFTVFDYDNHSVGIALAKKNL
Test: Inhibition of Plasmodium falciparum 3D7 plasmepsin II
Conditions: not given

IC50	SMILES
50 nM	CCCCCc1ccc(-c2cc(CCC(=O)O)c3c(=O)n(CC4CCCO4)c(N)nc3c2)cc1 (stereo not given)
740 nM	CCCCCc1ccc(-c2cc(-c3ccc(C(=O)O)cc3)c3c(=O)n(CC4CCC(c5ccccc5)O4)c(N)nc3c2)cc1 (stereo not given)

System: not listed separately
Test: Permeability of compound in human Caco-2 cells
Type: ADME, cell-based
Conditions: read-out: permeability

Papp	SMILES
12 ×10⁻⁶ cm/s	FC(F)(F)c1c(N2CCC(c3ccccc3)CC2)ccn2c(CC3CC3)nnc12
